Structures are written as SMILES.

The term melting point denotes the temperature of the solid-liquid transition. `O=C(O)CCc1ccccc1CNC(=O)C1Cc2ccccc2N1S(=O)(=O)c1ccc(-c2cccc(C(F)(F)F)c2)cc1` (stereo unspecified) yielded a melting point of 94 °C.

`CC(=O)N(C)C(Cc1ccccc1N)c1ccccn1` (stereo unspecified) registered a melting point of 103 to 107 °C.

On to `CCOC(=O)c1cc2c([nH]1)c(N(C)S(=O)(=O)c1cccs1)cn2CC`, for which the melting point came out at 122 °C.

`CCN1CCC(n2nnnc2C2(c3cc(C(C)C)ccc3OC)C=CC(O)=CC2O)CC1` (stereo unspecified) yielded a melting point of 144 to 147 °C.

For `CCn1c(=O)n(CCC(C)C(C)=O)c(=O)c2c1ncn2CCOC` (stereo unspecified), the melting point is 83 to 84 °C.

In the case of `CC1(C)Cc2cccc(Oc3c(Cl)cc([N+](=O)[O-])cc3Cl)c2O1`, the melting point was 105 to 110 °C.

On to `O=[N+]([O-])c1cccc(-c2cc3c(O)ncnc3o2)c1`, for which the melting point is greater than 300 °C.

In turn, `C=CCNC(=O)C=C(C)N` yielded a melting point of 143 to 144 °C.

For the compound `CC(C)c1csc(/C=C/c2cccc(NC(=O)Cc3cccc(CC(=O)O)c3)c2)n1`, the melting point was 122 to 124 °C.

As to `OCCCc1cnoc1-c1ccc(Cl)c(Cl)c1`, the melting point was in the range of 66 to 67 °C.

Compound `CCCN1CCC(O)(c2cccc(F)c2F)C1` (single isomer, unassigned; (-)) showed a melting point of 95 to 98 °C.

Consider `Cc1cc(C(O)(c2ccc(OC(F)(F)F)cc2)C(F)(F)F)ccc1N` (stereo unspecified), for which the melting point is 127 to 128 °C.

Regarding `COc1ccc(CCOc2ccnc(-c3cccc(C(=O)O)c3)c2)cc1OC`, the melting point was 194 to 195 °C.

In turn, `O=C(O)CC1(CCCCCCCCC2(CC(=O)O)CC2)CC1` registered a melting point of 101 °C.

`C=C1CCC2C3CCC4CC(O)C(OCC)CC4(C)C3C(=O)CC12C` (stereo unspecified) displayed a melting point of 103 to 108 °C.

With `C=C1C(O)C(CO)OC1n1cc(I)c(N)nc1=O` (stereo unspecified), the melting point lay within 159 to 161 °C.

As to `O=S(=O)(c1ncc(Cl)cn1)c1cccs1`, the melting point was 116 to 117 °C.

Consider `COc1cccc(-c2ccc3c(c2)C(=O)N(Cc2cccnc2)C3=O)c1`, for which the melting point fell in the range of 115 to 117 °C.

For the compound `Cc1nn(C)c(C(=O)O)c1-c1ccc(Cl)c(C(=O)NCC23CC4CC(CC(C4)C2)C3)c1`, the melting point stood at 207 °C.

Consider `CCCCc1oc2ccccc2c1C(=O)c1ccc(OCCN(CC)CC)c(I)c1`, for which the melting point is 100 to 102 °C.

`CCOc1ccc(C2CCC3c4ccc(OCC)c(F)c4OC3C2)c(F)c1F` (stereo unspecified) gave a melting point of 126 °C.

On to `O=C(O)CNC(=O)NC(CS)Cc1ccccc1` (single isomer, unassigned; (+)), for which the melting point came to 110 °C.

`CCCCCCCCCCCCCCCCCCOc1cc(N(CC(=O)OC)CC(=O)OC)cc(S(=O)CC(=O)OC)c1` (stereo unspecified): the melting point lay within 81 to 83 °C.

`OCc1cccc(-c2coc(-c3cn([C@H]4CN5CCC4CC5)nn3)c2)c1`: the melting point was 212 °C.

`COc1cccc(CC(=O)O)c1OCCCc1cc(OC(C)C)nn1Cc1ccc(C(F)(F)F)cc1` had a melting point of 116 to 117 °C.

The compound `CNC(=O)c1ccccc1Nc1nc(Nc2ccc3c(c2)CN(CCOC)CCS3)ncc1Cl` registered a melting point of 176 to 177 °C.

As for `COc1ccc(S(=O)(=O)n2cc(F)c(N)nc2=O)cc1`, the melting point is 158 to 162 °C.

Consider `Oc1nsc2c1CCCC2`, for which the melting point was in the range of 157 to 158 °C.

Consider `O=C(c1ccccc1)N1CCN(CC(O)Cn2c3ccccc3c3ccccc32)CC1` (stereo unspecified), for which the melting point turned out to be 153 °C.

`O=C(Nc1ncnc2c1c(Cl)cn2C1CC(O)C(CO)O1)c1ccccc1` (stereo unspecified) had a melting point of 190 °C.

The compound `CC(C)N(C=Nc1ccncc1O)C(C)C` registered a melting point of 77 to 79 °C.

As to `Cc1c(C)c2c(c(C)c1NC(=O)NC(C)(C)CO)C(c1ccc(C(C)C)cc1)CO2` (stereo unspecified), the melting point lay within 157 to 158 °C.

Compound `Cc1sc2c(c1C)C(c1ccc(Cl)cc1)=NC(CC(=O)NCc1cccnc1)c1nnc(C)n1-2` (stereo unspecified) registered a melting point of 180 to 183 °C.

Turning to `COc1ccc(N(CCC(=O)O)C(=O)Cl)cc1`, the melting point came out at 90 °C.

`NC(=O)C1CCc2cc(S(=O)(=O)Nc3ccc(-n4nnn(CCCC5CCCC5)c4=O)cc3)ccc2O1` (stereo unspecified) gave a melting point of 202 to 205 °C.

Compound `COC(=O)c1cc(Cl)ccc1-n1c(CCl)nc2ccccc2c1=O` displayed a melting point of 135 to 136 °C.

`Cc1cc(Br)cnc1CCCCNc1ncc(Cc2ccccc2)c(=O)[nH]1` returned a melting point of 138 to 139 °C.

For the compound `CCCC(=O)c1c[nH]c2c(C(=O)OC)cccc2c1=O`, the melting point fell in the range of 151 to 153 °C.

`CC(=O)C1Oc2c(C(C)(C)C)cc(Cl)cc2C1(C)C` (stereo unspecified) registered a melting point of 76 to 77 °C.

On to `OC1CSC(Oc2ccc(-c3ccco3)cc2)C(O)C1O` (stereo unspecified), for which the melting point came to 200 °C.

The compound `COc1cccc(C(=O)Nc2ccc(N3CCN(Cc4cccc(C#N)c4)CC3)cc2)c1-c1ccc(C(C)C)cc1` registered a melting point of 179 °C.

`CNC(=C[N+](=O)[O-])NCCOc1cccc(CN(C)C)c1`: the melting point is 130 to 131 °C.

The compound `CC(=O)OC(c1ccc(OCc2ccccc2)cc1)C(F)(F)F` (stereo unspecified) showed a melting point of 85 to 87 °C.

The compound `CCOC(=O)C1=C(C)NC(C)=C(C(=O)OCC)C1c1ccccc1/C=C/c1ccccc1` showed a melting point of 187 to 188 °C.

With `CC(NC(=O)Cc1cc(F)cc(F)c1)C(=O)NC1C(=O)NCc2ccc(F)cc21` (stereo unspecified), the melting point lay within 195 to 200 °C.

For `O=CC1=C(Cl)c2cccc(Cl)c2CC1`, the melting point was in the range of 83.5 to 84 °C.

`Cc1c(C)c2c(c(C)c1NC(=O)CC(C)(C)C)C(O)C(C)(C)O2` (stereo unspecified) returned a melting point of 204 to 206 °C.

Turning to `Cc1csc(C(=O)c2[nH]c3ccc(Cl)cc3c2CC(=O)O)n1`, the melting point is 218 to 220 °C.

Take `Cc1ccc(CCCO)c(NCc2ccc3nc(NCCCN4CCOCC4)n(Cc4nc(C)c(C)nc4C)c3c2)c1`: the melting point turned out to be 120 °C.

Compound `O=C(OCc1ccccc1)c1ncn2c1[C@@H]1CCCN1C(=O)c1c(Cl)cccc1-2` had a melting point of 141 to 142 °C.

In turn, `O=C(O)C(=O)N1CCC(Oc2ccc(Cl)cc2)CC1` came in with a melting point of 144 to 145 °C.

For the compound `CC(=O)Oc1cc2c(cc1C(C)(C)C)OC(C)(CCOc1ccc(CC3SC(=N)NC3=O)cc1)CC2` (stereo unspecified), the melting point is 175 to 178 °C.

The compound `N#Cc1ccc(NC(=O)CCC2CCCC(=O)O2)cc1` (stereo unspecified) gave a melting point of 145 to 148 °C.

Take `NC(=O)c1nnn(C2OC(CO)C(O)C2O)c1N` (stereo unspecified): the melting point fell in the range of 159 to 161 °C.

Take `CCCCCCCCN[C@@H]1Cc2cc(OC)c(OC)cc2[C@H]1O` (relative stereo): the melting point was 133 to 135 °C.

Take `CC(C)n1nc(O)nc1N(C)C`: the melting point fell in the range of 111 to 112 °C.

As for `Cc1cc(C)c(-c2cn(C)c3nc(N)[nH]c(=O)c23)c(C)c1`, the melting point lay in the range of 184 to 186 °C.

`COC(=O)C1=C(C)NC(N)=C(C(=O)OC(C)C)C1c1ccccc1C#N` (stereo unspecified) registered a melting point of 211 °C.

`Clc1ccc(C#Cc2ccc(-c3ccccc3)s2)cc1` returned a melting point of 141 to 145 °C.

Compound `N#CC(=Cc1ccc([N+](=O)[O-])cc1)c1ccc([N+](=O)[O-])cc1` came in with a melting point of 216 to 218 °C.

`COc1c(Br)cc(C2CC=CCC2[N+](=O)[O-])c(OC)c1OC` (stereo unspecified) registered a melting point of 134 to 136 °C.

`COC(=O)[C@H](Cc1ccc([N+](=O)[O-])cc1)NC(=S)c1c(C)cccc1Cl` gave a melting point of 150 to 153 °C.

Compound `O=C1C=C(Cc2ccccc2)CC1` gave a melting point of 32 to 33 °C.

Compound `CN(C)c1nc(Br)cnc1N` had a melting point of 145 °C.

As for `CC[C@@H](Nc1nc(NCc2ccccc2)c2ncn(C(C)C)c2n1)[C@H](C)O`, the melting point was 42 to 44 °C.

As for `Cc1nc2ccnn2c2c1CCN2Cc1ccccc1`, the melting point turned out to be 130 °C.

In the case of `CCOC(=O)CSc1ncnc2c(O)n(C(C)(C)C)nc12`, the melting point was 129 to 131 °C.

`O=C(Nc1cccc2c1C(=O)N(CCN1CCN(c3ccncc3)CC1)C2=O)c1ccc(Cl)s1` came in with a melting point of 168 °C.

For `O=C1NC(=S)NC(=O)C1=Cc1ccc[nH]1`, the melting point stood at 280 °C.

With `COc1cc(C=O)c(CCC(=O)O)c(C=O)c1O`, the melting point is 164 to 166 °C.

Consider `COc1ccc(Cn2nccc2-c2nn(-c3cccc(C(F)(F)F)c3)ccc2=O)cc1`, for which the melting point fell in the range of 159 to 161 °C.

In turn, `CN(C=O)C1CCN(CC2=Cc3ccccc32)CC1` came in with a melting point of 86 to 88 °C.

`O=S1(=O)CCCN1CCc1ccncc1` showed a melting point of 70 °C.

`CONC(=O)CON1C(=O)c2ccccc2C1=O` returned a melting point of 179 °C.

The compound `CC(=O)OC1c2ccc(Cl)cc2CC1S(C)(=O)=O` (stereo unspecified) gave a melting point of 136 °C.

`CCOC(=O)c1cnc2sc(C)c(C)n12` came in with a melting point of 60 to 61 °C.

`C=CCOC[C@H](NC(=O)[C@@H](NC(=O)[C@H](Cc1ccc(OCC=C)cc1)NC(=O)OC(C)(C)C)C(C)C)C(=O)OC` had a melting point of 109 to 111 °C.

On to `CCN(CC)C(=O)c1cc(-c2ccc(Cl)cc2)nc2ccc(Cl)cc12`, for which the melting point was 130 °C.

In turn, `CS(=O)(=O)c1ccc(-c2cnn(CC=C(Cl)Cl)c(=O)c2-c2ccc(F)cc2)cc1` displayed a melting point of 150 to 152 °C.

`Cc1cc(N2C(=O)NC(C)(C)C2=O)ccc1[N+](=O)[O-]`: the melting point was 177 to 178 °C.

As to `COC(=O)CC(=O)c1cc(F)c(OC)c(F)c1`, the melting point fell in the range of 64 to 67 °C.

`CC=CC1Nc2ccccc2-c2c([N+](=O)[O-])cnn21` (stereo unspecified) yielded a melting point of 115 to 117 °C.

`[N-]=[N+]=NCC(=O)Nc1ccc(S(=O)(=O)c2ccc(F)cc2)cc1` registered a melting point of 181 to 184 °C.

As for `Cc1cccc(-n2nc(C)cc2-c2cc[nH]c(=O)c2)c1`, the melting point lay in the range of 182 to 183 °C.

For the compound `CC(C)NCC(O)COc1cccc2c1CCCC(=O)N2` (stereo unspecified), the melting point was in the range of 143 to 145 °C.

On to `CN(C)c1ccc2c(c1)C(=O)CC(c1ccc(OCc3ccccc3)cc1)=N2`, for which the melting point lay within 283 to 285 °C.

`O=C(O)c1cccc(-c2cc(-c3ccc(F)cc3)[nH]n2)c1`: the melting point was in the range of 270 to 272 °C.

The compound `O=C[C@H]1CC[C@H](c2ccc(F)cc2)CC1` yielded a melting point of less than 30 °C.

In the case of `COC(=O)Cn1cnc2c(C)c[nH]c2c1=O`, the melting point lay within 233 to 235 °C.

Compound `CN1CCC(=C2c3ccc(F)cc3CCn3ccnc32)CC1` came in with a melting point of 152 °C.

For the compound `COCc1c(C(=O)OC(C)C)ncc2[nH]c3cccc(-c4cccnc4)c3c12`, the melting point was in the range of 187 to 188 °C.

For the origin of these results see a melting point compilation (Tetko et al.; mined from patent text by program, amines drawn as free bases though some values may be those of a salt).
